Measured values: patent US10894798B2, “Substituted dihydropyrrolopyrazole derivative” (UBE INDUSTRIES, LTD., priority 2015, dated 2021)

Tests used:
CDK7 = target: T1, CDK7 (Homo sapiens, UniProt P50613); assay: CDK7 enzyme inhibition test; format: biochemical; conditions: [γ-33P]ATP, MBP substrate, 60 min preincubation at 25°C; Ki=IC50/(1+S/Km); read-out: Ki value of CDK7 inhibitory activity
T1 construct: purchased Carna Biosciences, Inc. 04-108
Experimental: The preparation of a buffer solution was performed by mixing a N-2-hydroxyethylpiperazine-N′-2-ethanesulfonic acid buffer solution (HEPES buffer solution) (pH 7.4), dithiothreitol (DTT), Triton X-100, and magnesium chloride (MgCl2). A 500 μM [γ-^33P]ATP solution was used by diluting a 10 mM ATP solution and a commercially available [γ-^33P]ATP solution (manufactured by PerkinElmer, Inc., Code No. NEG-302H) with the buffer solution. A CDK7 solution was used by diluting commercially available CDK7 (manufactured by Carna Biosciences, Inc., Catalog No. 04-108) with the buffer solution. A substrate solution was used by diluting myelin basic protein (MBP) with the buffer solution. As for the preparation of a reaction solution, the buffer solution, the CDK7 solution, and the substrate solution were mixed at 4° C. to obtain a reaction solution.
CDK7 enzyme reaction was performed by adding 5 μL of a test compound solution prepared with 10% DMSO/90% injectable distilled water, and 40 μL of the reaction solution to a 1.5 mL microtube at 4° C. and preincubating the microtube at 25° C. for 60 minutes in a water bath incubator. Subsequently, reaction was performed at 30° C. for 20 minutes by adding 5 μL of the 500 μM [γ-^33P]ATP solution. After the reaction, a 10% aqueous trichloroacetic acid (TCA) solution was added to each microtube while cooled to 4° C., and mixed in a vortex mixer to terminate the reaction. The resultant was left standing at 4° C. for 10 minutes and then centrifuged, and the supernatant was discarded. Next, a 2% aqueous trichloroacetic acid (TCA) solution was added thereto, mixed in a vortex mixer, and then centrifuged, and the supernatant was discarded. This washing operation was performed twice. After the washing, precipitates were dissolved in a 1 N aqueous sodium hydroxide (NaOH) solution, and the energy quantity (radioactivity) of the reaction product was measured with a liquid scintillation counter.
The calculation of the inhibitory activity of the test compound against CDK7 was performed as a test compound concentration inhibiting 50% of the amount of ^33P bound to MBP (IC50 value) by using EXSUS (version 8.1.0, manufactured by CAC Exicare Corp.).
The calculation of a Ki value was performed according to the following calculation expression wherein S represents the concentration of ATP contained in the reaction solution, and Km represents a Michaelis-Menten constant: Ki=IC50/(1+S/Km)

[1] = test system: human large intestine cancer cell line (HCT-116); assay: Human large intestine cancer (HCT-116) cell growth inhibition test; format: cell-based; conditions: HCT-116, 72 h, culture for 3 days, sulforhodamine B, read-out: GI50 value, HCT-116 cell growth inhibition
Experimental: The measurement of a human large intestine cancer cell growth inhibitory effect was carried out by modifying the method of Simak et al. (Cancer Research, 69, 6208 (2009)).
A human large intestine cancer cell line (HCT-116, obtained from DS Pharma Biomedical Co., Ltd.) was cultured in a McCoy's 5A medium (manufactured by Thermo Fisher Scientific, Inc.) containing 10% fetal bovine serum (FBS) (manufactured by Thermo Fisher Scientific, Inc.) and 1% penicillin/streptomycin/amphotericin B (manufactured by Thermo Fisher Scientific, Inc.) and inoculated at 0.5 to 2.0×10^3 cells/well in a 96-well plate. After overnight culture in a carbon dioxide incubator, the medium was replaced with a fresh medium on the next day, and a test compound dissolved in DMSO (final DMSO concentration: 0.1%) was added thereto and left standing in a carbon dioxide incubator. After culture for 3 days, the absorbance thereof was measured by using In Vitro Toxicology Assay Kit Sulforhodamine B based (manufactured by Sigma-Aldrich Co. LLC.).
The rate of inhibition of cell growth at each concentration was calculated from the test compound concentration and the absorbance of sulforhodamine B, and the concentration of the test compound necessary for inhibiting 50% of cell growth (GI50 value) was calculated by using EXSUS (version 8.1.0, manufactured by CAC Exicare Corp.).

T1 sequence (P50613 whole entry): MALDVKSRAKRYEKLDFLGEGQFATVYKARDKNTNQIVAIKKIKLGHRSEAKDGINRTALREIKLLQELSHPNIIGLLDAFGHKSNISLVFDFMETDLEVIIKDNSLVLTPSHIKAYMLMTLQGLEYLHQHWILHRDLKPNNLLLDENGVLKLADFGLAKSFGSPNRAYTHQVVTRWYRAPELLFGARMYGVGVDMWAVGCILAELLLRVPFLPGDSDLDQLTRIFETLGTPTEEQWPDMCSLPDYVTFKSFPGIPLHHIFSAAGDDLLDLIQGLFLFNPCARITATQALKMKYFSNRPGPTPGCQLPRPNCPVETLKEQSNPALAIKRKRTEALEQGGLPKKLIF
T1 sequence (P51946 whole entry partner): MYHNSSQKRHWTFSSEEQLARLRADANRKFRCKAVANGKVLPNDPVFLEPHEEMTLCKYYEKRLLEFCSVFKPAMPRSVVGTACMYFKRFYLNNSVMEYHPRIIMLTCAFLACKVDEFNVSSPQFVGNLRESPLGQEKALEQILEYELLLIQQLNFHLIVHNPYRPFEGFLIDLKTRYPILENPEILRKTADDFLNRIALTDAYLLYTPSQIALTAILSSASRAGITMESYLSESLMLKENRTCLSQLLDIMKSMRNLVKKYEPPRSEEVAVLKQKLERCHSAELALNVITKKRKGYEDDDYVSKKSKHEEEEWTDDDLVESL
T1 sequence (P51948 whole entry partner): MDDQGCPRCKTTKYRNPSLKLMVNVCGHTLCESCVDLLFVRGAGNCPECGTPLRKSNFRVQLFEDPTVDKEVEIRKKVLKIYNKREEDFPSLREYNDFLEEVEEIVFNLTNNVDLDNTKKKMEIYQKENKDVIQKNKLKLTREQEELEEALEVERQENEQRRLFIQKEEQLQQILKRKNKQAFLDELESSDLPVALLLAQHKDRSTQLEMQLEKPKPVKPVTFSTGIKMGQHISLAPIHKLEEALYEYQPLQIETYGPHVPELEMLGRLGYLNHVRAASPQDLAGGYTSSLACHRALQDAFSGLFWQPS

Compound	Ki (CDK7) [nM]	GI50 [1] [nM]
CN(C(=O)N1Cc2c(NC(=O)C3([Si](C)(C)C)CCC3)n[nH]c2C1(C)C)c1ccccc1 [I-965, N,6,6-Trimethyl-N-phenyl-3-[1-(trimethylsilyl)cyclobutanecarboxamido]-4,6-dihydropyrrolo[3,4-c]pyrazole-5(1H)-carboxamide]	≤ 50	–
CC[Si](C)(C)C1(C(=O)Nc2n[nH]c3c2CN(C(=O)Nc2ccccc2F)C3(C)C)CCC1 [IV-4, 3-[1-(Ethyldimethylsilyl)cyclobutanecarboxamido]-N-(2-fluorophenyl)-6,6-dimethyl-4,6-dihydropyrrolo[3,4-c]pyrazole-5(1H)-carboxamide]	–	≤ 100
CC1(C)c2[nH]nc(NC(=O)C3([Si](C)(C)C)CCC3)c2CN1C(=O)Nc1cccc(F)c1 [IV-5, N-(3-Fluorophenyl)-6,6-dimethyl-3-[1-(trimethylsilyl)cyclobutanecarboxamido]-4,6-dihydropyrrolo[3,4-c]pyrazole-5(1H)-carboxamide]	–	≤ 100
CC1(C)c2[nH]nc(NC(=O)C3([Si](C)(C)C)CCC3)c2CN1C(=O)Nc1cccc(Cl)c1 [IV-11, N-(3-Chlorophenyl)-6,6-dimethyl-3-[1-(trimethylsilyl)cyclobutanecarboxamido]-4,6-dihydropyrrolo[3,4-c]pyrazole-5(1H)-carboxamide]	–	≤ 100
Cc1ccc(NC(=O)N2Cc3c(NC(=O)C4([Si](C)(C)C)CCC4)n[nH]c3C2(C)C)cc1 [IV-25, 6,6-Dimethyl-N-(p-tolyl)-3-[1-(trimethylsilyl)cyclobutanecarboxamido]-4,6-dihydropyrrolo[3,4-c]pyrazole-5(1H)-carboxamide]	–	≤ 100
CCOc1ccccc1NC(=O)N1Cc2c(NC(=O)C3([Si](C)(C)C)CCC3)n[nH]c2C1(C)C [IV-81, N-(2-Ethoxyphenyl)-6,6-dimethyl-3-[1-(trimethylsilyl)cyclobutanecarboxamido]-4,6-dihydropyrrolo[3,4-c]pyrazole-5(1H)-carboxamide]	–	≤ 100
Cc1cccc(NC(=O)N2Cc3c(NC(=O)C4([Si](C)(C)C)CCC4)n[nH]c3C2(C)C)c1F [IV-123, N-(2-Fluoro-3-methylphenyl)-6,6-dimethyl-3-[1-(trimethylsilyl)cyclobutanecarboxamido]-4,6-dihydropyrrolo[3,4-c]pyrazole-5 (1H)-carboxamide]	–	≤ 100
CC1(C)c2[nH]nc(NC(=O)C3([Si](C)(C)C)CCC3)c2CN1C(=O)Nc1cc(F)ccc1Cl [IV-191, N-(2-Chloro-5-fluorophenyl)-6,6-dimethyl-3-[1-(trimethylsilyl)cyclobutanecarboxamido]-4,6-dihydropyrrolo[3,4-c]pyrazole-5 (1H)-carboxamide]	–	≤ 100
CC1(C)c2[nH]nc(NC(=O)C3([Si](C)(C)C)CCC3)c2CN1C(=O)Nc1cc(Cl)ccc1Cl [IV-197, N-(2,5-Dichlorophenyl)-6,6-dimethyl-3-[1-(trimethylsilyl)cyclobutanecarboxamido]-4,6-dihydropyrrolo[3,4-c]pyrazole-5(1H)-carboxamide]	–	≤ 100
Cc1ccc(Cl)c(NC(=O)N2Cc3c(NC(=O)C4([Si](C)(C)C)CCC4)n[nH]c3C2(C)C)c1 [IV-213, N-(2-Chloro-5-methylphenyl)-6,6-dimethyl-3-[1-(trimethylsilyl)cyclobutanecarboxamido]-4,6-dihydropyrrolo[3,4-c]pyrazole-5 (1H)-carboxamide]	–	≤ 100
COc1ccc(Cl)c(NC(=O)N2Cc3c(NC(=O)C4([Si](C)(C)C)CCC4)n[nH]c3C2(C)C)c1 [IV-245, N-(2-Chloro-5-methoxyphenyl)-6,6-dimethyl-3-[1-(trimethylsilyl)cyclobutanecarboxamido]-4,6-dihydropyrrolo[3,4-c]pyrazole-5(1H)-carboxamide]	–	≤ 100

Continued, in another order:

Ki (CDK7) [nM]	Compound	GI50 [1] [nM]
≤ 50	Cc1cccc(Br)c1NC(=O)N1Cc2c(NC(=O)C(C)(C)[Si](C)(C)C)n[nH]c2C1(C)C [II-290, N-(2-Bromo-6-methylphenyl)-6,6-dimethyl-3-[2-methyl-2-(trimethylsilyl)propanamido]-4,6-dihydropyrrolo[3,4-c]pyrazole-5(1H)-carboxamide]	–
≤ 50	Cc1cccc(Br)c1NC(=O)N1Cc2c(NC(=O)C3([Si](C)(C)C)CC3)n[nH]c2C1(C)C [III-299, N-(2-Bromo-6-methylphenyl)-6,6-dimethyl-3-[1-(trimethylsilyl)cyclopropanecarboxamido]-4,6-dihydropyrrolo[3,4-c]pyrazole-5(1H)-carboxamide]	≤ 100
≤ 50	CC1(C)c2[nH]nc(NC(=O)C3([Si](C)(C)C)CCC3)c2CN1C(=O)Nc1ccc(F)cc1 [IV-7, N-(4-Fluorophenyl)-6,6-dimethyl-3-[1-(trimethylsilyl)cyclobutanecarboxamido]-4,6-dihydropyrrolo[3,4-c]pyrazole-5(1H)-carboxamide]	≤ 100
≤ 50	Cc1cccc(NC(=O)N2Cc3c(NC(=O)C4([Si](C)(C)C)CCC4)n[nH]c3C2(C)C)c1 [IV-23, 6,6-Dimethyl-N-(m-tolyl)-3-[1-(trimethylsilyl)cyclobutanecarboxamido]-4,6-dihydropyrrolo[3,4-c]pyrazole-5(1H)-carboxamide]	≤ 100
≤ 50	CC1(C)c2[nH]nc(NC(=O)C3([Si](C)(C)C)CCC3)c2CN1C(=O)Nc1ccccc1C(F)(F)F [IV-51, 6,6-Dimethyl-N-[2-(trifluoromethyl)phenyl]-3-[1-(trimethylsilyl)cyclobutanecarboxamido]-4,6-dihydropyrrolo[3,4-c]pyrazole-5 (1H)-carboxamide]	≤ 100
≤ 50	CC1(C)c2[nH]nc(NC(=O)C3([Si](C)(C)C)CCC3)c2CN1C(=O)Nc1ccccc1C#N [IV-63, N-(2-Cyanophenyl)-6,6-dimethyl-3-[1-(trimethylsilyl)cyclobutanecarboxamido]-4,6-dihydropyrrolo[3,4-c]pyrazole-5(1H)-carboxamide]	≤ 100
≤ 50	COc1ccc(NC(=O)N2Cc3c(NC(=O)C4([Si](C)(C)C)CCC4)n[nH]c3C2(C)C)cc1 [IV-79, N-(4-Methoxyphenyl)-6,6-dimethyl-3-[1-(trimethylsilyl)cyclobutanecarboxamido]-4,6-dihydropyrrolo[3,4-c]pyrazole-5(1H)-carboxamide]	≤ 100
≤ 50	CC1(C)c2[nH]nc(NC(=O)C3([Si](C)(C)C)CCC3)c2CN1C(=O)Nc1ccccc1OC(F)(F)F [IV-93, 6,6-Dimethyl-N-[2-(trifluoromethoxy)phenyl]-3-[1-(trimethylsilyl)cyclobutanecarboxamido]-4,6-dihydropyrrolo[3,4-c]pyrazole-5(1H)-carboxamide]	≤ 100
≤ 50	CC1(C)c2[nH]nc(NC(=O)C3([Si](C)(C)C)CCC3)c2CN1C(=O)Nc1cccc(F)c1F [IV-99, N-(2,3-Difluorophenyl)-6,6-dimethyl-3-[1-(trimethylsilyl)cyclobutanecarboxamido]-4,6-dihydropyrrolo[3,4-c]pyrazole-5(1H)-carboxamide]	≤ 100
≤ 50	CC1(C)c2[nH]nc(NC(=O)C3([Si](C)(C)C)CCC3)c2CN1C(=O)Nc1ccc(F)cc1F [IV-101, N-(2,4-Difluorophenyl)-6,6-dimethyl-3-[1-(trimethylsilyl)cyclobutanecarboxamido]-4,6-dihydropyrrolo[3,4-c]pyrazole-5(1H)-carboxamide]	≤ 100
≤ 50	CC1(C)c2[nH]nc(NC(=O)C3([Si](C)(C)C)CCC3)c2CN1C(=O)Nc1cccnc1 [IV-1019, 6,6-Dimethyl-N-(pyridin-3-yl)-3-[1-(trimethylsilyl)cyclobutanecarboxamido]-4,6-dihydropyrrolo[3,4-c]pyrazole-5(1H)-carboxamide]	–
